US12496346B2, “Phospholipid-flavagline conjugates and methods of using the same for targeted cancer therapy” (Cellectar Biosciences, Inc., priority 2019, dated 2025)

Columns and labels:
[1] = test system: A375 (human malignant melanoma); assay: IC50 of PLE-flavagline conjugates in cell lines; assay type: cell-based; details: A-375, read-out: IC50 A375
[2] = test system: A549 (human lung adenocarcinoma); assay: cells; assay type: cell-based
[3] = test system: HCT 116 (human colon cancer); assay: IC50 of PLE-flavagline conjugates in cell lines; assay type: cell-based; details: HCT-116, read-out: IC50 HCT 116
[4] = test system: NHDF (normal human dermal fibroblasts); assay: IC50 of PLE-flavagline conjugates in cell lines; assay type: cell-based; details: read-out: IC50 NHDF
in vivo = assay type: in vivo, mice
Experimental: Listed in Table 5 are the doses administered to the mice, and how many mice were alive after treatment (“3/3” indicates 3 out of 3 mice were alive). […] MTD for CLR 1865 was between 5 and 10 mg/kg.

A375 and A549 cells = assay: FLV3 levels in cell lysate and growth media by LC/MS; assay type: cell-based, human; details: after 24 hours, CLR 1852 and FLV3 alone administered
Experimental: The levels of FLV3 in cell lysate and growth media were measured using LC/MS. […] Levels of intracellular FLV3 appeared to plateau at 24 hours, while extracellular levels of FLV3 continued to increase.

[5] = In vitro cytotoxicity of CLR 1899; assay type: cell-based; details: human, NHDF (normal dermal fibroblasts); read-out: Minimum % viability
Experimental: CLR 1899 was administered to cell lines A375 (human malignant melanoma), A549 (human lung adenocarcinoma), HCT 116 (human colon cancer), and NHDF (normal human dermal fibroblasts).

[6] = In vivo tolerability, body weight changes; set-up: species or system C57BL/6 mice; details: intravenous, repeat dosing, 0.5, 1.0 or 2.0 mg/kg
Experimental: To determine whether CLR 1899 is tolerated in vivo, the compound was administered intravenously to healthy C57BL/6 mice at dose levels of 0.5 mg/kg, 1.0 mg/kg, or 2.0 mg/kg, and body weight changes were observed (FIG. 12). […] The in vivo efficacy of CLR 1899 was studied in MCF-7 xenograft model (FIG. 13, 10 mice per dose group). Reduction in tumor volume was recorded.

Intestinal Polyp = assay: Uptake in benign tissues; assay type: in vivo; details: Endogenous Mouse, Adenoma (benign)
[7] = test system: Mammary alveolar hyperplasia; assay: Uptake in benign tissues; assay type: in vivo; details: Endogenous Mouse
[8] = test system: Caki-2 tumor cells (human clear cell renal cell carcinoma); assay: Selective uptake of PDC in co-culture; assay type: cell-based; details: 5 μM, 24 hours, co-culture with normal fibroblast
Experimental: (§2) Normal fibroblast and Caki-2 tumor cells (human clear cell renal cell carcinoma) were plated and co-cultured overnight (FIG. 1F). […] The next day cells were washed and co-stained with nucleus stain (Hoescht 33342). CLR 1501 was excited and then detected with an Alexa-Fluor 488 filter.

Normal fibroblast = assay: Selective uptake of PDC in co-culture; assay type: cell-based; details: 5 μM, 24 hours, co-culture with Caki-2
Experimental: as §2

A549 cells = assay: Uptake of PDC after disruption of lipid rafts; assay type: cell-based, human; details: lipid rafts disrupted with methyl b-cyclodextrin vs untreated cells; 5 μM, 24 hours
Experimental: A549 cells were plated overnight into separate wells.

[9] = test system: Human prostate adenocarcinoma cells (PC3); assay: Co-localization with endoplasmic reticulum; assay type: cell-based; details: 5 μM, 24 hours, ER-tracker
Source text: After washing, the cells were co-stained with ER-tracker® per protocol and imaged using Nikon A1R confocal light microscope. CLR 1501 and ER were excited and detected using Alexa-Fluor 488 using standard fluorescein filters.

[10] = test system: PC3 (grade IV, human prostate adenocarcinoma) cell lines; assay: Co-localization with mitochondria; assay type: cell-based; details: 5 μM, 24 hours, Mitotracker
Source text: The cells were observed using Nikon A1R confocal microscope.

Adrenal H-295 = assay: Tumor uptake of PLE; assay type: in vivo; details: SCID Mouse, Adenocarcinoma
Experimental: (§1) Tumor cell uptake was measured continuously for 24 hours.

Adrenal RL-251 = assay: Tumor uptake of PLE; assay type: in vivo; details: SCID Mouse, Adenocarcinoma
Experimental: as §1

Breast 4T1 = assay: Tumor uptake of PLE; assay type: in vivo; details: Endogenous Mouse (orthotopic), Adenocarcinoma
Experimental: as §1

Breast MCF-7 = assay: Tumor uptake of PLE; assay type: in vivo; details: Rat, Adenocarcinoma
Experimental: as §1

Cervical = assay: Tumor uptake of PLE; assay type: in vivo; details: Endogenous Mouse, Adenocarcinoma
Experimental: as §1

Colon CT-26 = assay: Tumor uptake of PLE; assay type: in vivo; details: SCID Mouse, Adenocarcinoma
Experimental: as §1

Colon DLDI = assay: Tumor uptake of PLE; assay type: in vivo; details: SCID Mouse, Colorectal adenocarcinoma
Experimental: as §1

Colon HT-29 = assay: Tumor uptake of PLE; assay type: in vivo; details: SCID Mouse, Colorectal adenocarcinoma
Experimental: as §1

Colon LS-180 = assay: Tumor uptake of PLE; assay type: in vivo; details: Nude Mouse, Adenocarcinoma
Experimental: as §1

Colon-51 = assay: Tumor uptake of PLE; assay type: in vivo; details: SCID Mouse, Colorectal adenocarcinoma
Experimental: as §1

ColonLS180 = assay: Tumor uptake of PLE; assay type: in vivo; details: SCID Mouse, Colorectal adenocarcinoma
Experimental: as §1

Esophageal = assay: Tumor uptake of PLE; assay type: in vivo; details: Endogenous Mouse, Adenocarcinoma
Experimental: as §1

Glioma C6 = assay: Tumor uptake of PLE; assay type: in vivo; details: Rat xenograft
Experimental: as §1

Glioma CNS1 = assay: Tumor uptake of PLE; assay type: in vivo; details: Rat xenograft
Experimental: as §1

Glioma L9 = assay: Tumor uptake of PLE; assay type: in vivo; details: Rat xenograft
Experimental: as §1

Glioma RG2 = assay: Tumor uptake of PLE; assay type: in vivo; details: Rat xenograft
Experimental: as §1

Hepatocellular Carcinoma = assay: Tumor uptake of PLE; assay type: in vivo; details: Endogenous Mouse, Adenocarcinoma
Experimental: as §1

Lung A-549 (NSCLC) = assay: Tumor uptake of PLE; assay type: in vivo; details: SCID Mouse, Adenocarcinoma
Experimental: as §1

Lung NCI H-69 (Oat Cell) = assay: Tumor uptake of PLE; assay type: in vivo; details: SCID Mouse, Adenocarcinoma
Experimental: as §1

Mammary AC = assay: Tumor uptake of PLE; assay type: in vivo; details: Apc^Min/+ mouse, Adenocarcinoma
Experimental: as §1

Mammary SCC = assay: Tumor uptake of PLE; assay type: in vivo; details: Apc^Min/+ mouse, Squamous cell carcinoma
Experimental: as §1

Melanoma A-375 = assay: Tumor uptake of PLE; assay type: in vivo; details: Nude Mouse, Adenocarcinoma
Experimental: as §1

Melanoma = assay: Tumor uptake of PLE; assay type: in vivo; details: Mouse, Adenocarcinoma
Experimental: as §1

Min Mouse Intestinal = assay: Tumor uptake of PLE; assay type: in vivo; details: Endogenous Mouse, Adenocarcinoma
Experimental: as §1

Ovarian HTB-77 = assay: Tumor uptake of PLE; assay type: in vivo; details: Nude Mouse, Adenocarcinoma
Experimental: as §1

Pancreatic BXPC3 = assay: Tumor uptake of PLE; assay type: in vivo; details: Nude Mouse, Adenocarcinoma
Experimental: as §1

Pancreatic Capan-1 = assay: Tumor uptake of PLE; assay type: in vivo; details: Nude Mouse, Adenocarcinoma
Experimental: as §1

Pancreatic Kras = assay: Tumor uptake of PLE; assay type: in vivo; details: Endogenous Mouse, Adenocarcinoma
Experimental: as §1

Pancreatic c-myc = assay: Tumor uptake of PLE; assay type: in vivo; details: Endogenous Mouse, Adenocarcinoma
Experimental: as §1

Prostate LnCap = assay: Tumor uptake of PLE; assay type: in vivo; details: Mouse, Adenocarcinoma
Experimental: as §1

Prostate LuCap = assay: Tumor uptake of PLE; assay type: in vivo; details: Mouse, Adenocarcinoma
Experimental: as §1

Prostate MatLyLu = assay: Tumor uptake of PLE; assay type: in vivo; details: Rat, Adenocarcinoma
Experimental: as §1

Prostate PC-3 = assay: Tumor uptake of PLE; assay type: in vivo; details: SCID Mouse, Adenocarcinoma
Experimental: as §1

Renal Cell ACHN = assay: Tumor uptake of PLE; assay type: in vivo; details: Nude Mouse (orthotopic), Adenocarcinoma
Experimental: as §1

Renal Cell Caki-2 = assay: Tumor uptake of PLE; assay type: in vivo; details: Nude Mouse (orthotopic), Adenocarcinoma
Experimental: as §1

Retinoblastoma = assay: Tumor uptake of PLE; assay type: in vivo; details: Endogenous Mouse, Blastoma
Experimental: as §1

SCC1 = assay: Tumor uptake of PLE; assay type: in vivo; details: Nude Mouse, Squamous cell carcinoma
Experimental: as §1

SCC6 = assay: Tumor uptake of PLE; assay type: in vivo; details: Nude Mouse, Adenocarcinoma
Experimental: as §1

Sarcoma (Meth-A) = assay: Tumor uptake of PLE; assay type: in vivo; details: Nude Mouse, Fibrosarcoma
Experimental: as §1

TRAMP prostate = assay: Tumor uptake of PLE; assay type: in vivo; details: Endogenous Mouse, Adenocarcinoma
Experimental: as §1

Walker-256 = assay: Tumor uptake of PLE; assay type: in vivo; details: Rat, Carcinosarcoma
Experimental: as §1

COC(=O)[C@@H]1[C@H](O)[C@]2(O)c3c(OC)cc(OCCCCN)cc3O[C@]2(c2ccc(OC)cc2)[C@H]1c1ccccc1 [FLV3]
high levels: levels of FLV3 in the cell lysate (A375 and A549 cells)
9 nM: IC50 [3]
90 nM: IC50 ([2]; Homo sapiens, A549, read-out: IC50 A549)
15 nM: IC50 [1]
0.89: Therapeutic Index (TI) ([2]; in vitro, NHDF IC50 relative to cancer cell IC50)
8 nM: IC50 [4]
3/3: mice alive after treatment (in vivo; Dose 0.1 mg/kg) | mice alive after treatment (in vivo; Dose 0.25 mg/kg)
Moderate levels: levels of FLV3 in the growth media (A375 and A549 cells)

COC(=O)[C@H]1[C@@H](O)[C@@]2(O)c3c(OC)cc(OCCCCNC(=O)CNC(=O)CNC(=O)CNC(=O)c4ccc(CCCCCCCCCCCCCCCCCCOP(=O)([O-])OCC[N+](C)(C)C)cc4)cc3O[C@@]2(c2ccc(OC)cc2)[C@@H]1c1ccccc1 [CLR 1899]
no toxicity or adverse events: toxicity or adverse events as measured by changes in weight [6]
41.7%: viability [5]

C[N+](C)(C)CCOP(=O)([O-])OCCCCCCCCCCCCCCCCCCc1ccc(I)cc1 [CLR1404]
No: Tumor Uptake (Intestinal Polyp) | Tumor Uptake [7]

C[N+](C)(C)CCOP(=O)([O-])OCCCCCCCCCCCCCCCCCCc1ccc(C2=C3C=CC=[N+]3[B-](F)(F)n3cccc32)cc1 [CLR 1501]
co-localized with mitochondria: co-localization with mitochondria [10]
60%: reduction in uptake (A549 cells)
highly localized: localization in Caki-2 cells [8]
co-localized with ER in malignant: co-localization with ER [9]
Yes: Tumor Uptake (Adrenal H-295) | Tumor Uptake (Adrenal RL-251) | Tumor Uptake (Breast 4T1) | Tumor Uptake (Breast MCF-7) | Tumor Uptake (Cervical) | Tumor Uptake (Colon CT-26) | Tumor Uptake (Colon DLDI) | Tumor Uptake (Colon HT-29) | Tumor Uptake (Colon LS-180) | Tumor Uptake (Colon-51) | Tumor Uptake (ColonLS180) | Tumor Uptake (Esophageal) | Tumor Uptake (Glioma C6) | Tumor Uptake (Glioma CNS1) | Tumor Uptake (Glioma L9) | Tumor Uptake (Glioma RG2) | Tumor Uptake (Hepatocellular Carcinoma) | Tumor Uptake (Lung A-549 (NSCLC)) | Tumor Uptake (Lung NCI H-69 (Oat Cell)) | Tumor Uptake (Mammary AC) | Tumor Uptake (Mammary SCC) | Tumor Uptake (Melanoma A-375) | Tumor Uptake (Melanoma) | Tumor Uptake (Min Mouse Intestinal) | Tumor Uptake (Ovarian HTB-77) | Tumor Uptake (Pancreatic BXPC3) | Tumor Uptake (Pancreatic Capan-1) | Tumor Uptake (Pancreatic Kras) | Tumor Uptake (Pancreatic c-myc) | Tumor Uptake (Prostate LnCap) | Tumor Uptake (Prostate LuCap) | Tumor Uptake (Prostate MatLyLu) | Tumor Uptake (Prostate PC-3) | Tumor Uptake (Renal Cell ACHN) | Tumor Uptake (Renal Cell Caki-2) | Tumor Uptake (Retinoblastoma) | Tumor Uptake (SCC1) | Tumor Uptake (SCC6) | Tumor Uptake (Sarcoma (Meth-A)) | Tumor Uptake (TRAMP prostate) | Tumor Uptake (Walker-256)
minimally: localization in normal fibroblast cells (Normal fibroblast)
